Viability and MTD data for six molecules are collected here from patent publication US6593342B1, “Pharmaceutical compositions comprising 2-quinolones” (Laboratoire L. Lafon, priority 1998, dated 2003).

SMILES strings stand for the structures.

For one data set, the system named is U-373MG. Description: MTT test, U-373MG. The note with it: Homo sapiens, U373 MG, 10^−5 M, 72 hours, control = 100%, mean ± SEM, read-out: average optical density (MTT), percentage relative to control. In kind it is cell-based. In outline:
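Human glioblastoma lines in MEM/25 mM HEPES with 5% FCS, seeded 24 h, then exposed 72 h at 37 °C to compounds at 10^−5 to 10^−10 M or solvent. MTT (1 mg/ml) 3 h, formazan dissolved in DMSO, absorbance 570/630 nm; optical density expressed as % of solvent control.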

A further data set deals with MCF7. Description: MTT test, MCF7. In kind it is cell-based. To be noted: Homo sapiens, 10^−5 M, 72 hours, control = 100%, mean ± SEM, read-out: average optical density (MTT), percentage relative to control. In a few lines: (§1)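 T-47D and MCF7 cells in MEM/25 mM HEPES with 5% FCS, treated 72 h at 37 °C with compound at 10^−5 to 10^−10 M, 24 h after seeding. MTT (1 mg/ml) added for 3 h, formazan dissolved in DMSO, read at 570/630 nm. Optical density expressed as % of solvent control.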
(In general: Tetrazolium dyes change colour on reduction, which living cells bring about.)

A further data set deals with T-47D. Description: MTT test, T-47D. In kind it is cell-based. To be noted: Homo sapiens, T47D, 10^−5 M, 72 hours, control = 100%, mean ± SEM, read-out: average optical density (MTT), percentage relative to control. In outline:
as §1

For the next data set, the system named is A549. Put plainly: MTT test, A549. In kind it is cell-based. The note with it: Homo sapiens, 10^−5 M, 72 hours, control = 100%, mean ± SEM, read-out: average optical density (MTT), percentage relative to control. In outline:
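Cells seeded at 20 000–50 000/ml and allowed 24 h before exposure to compound (10^−5 to 10^−10 M) or solvent for 72 h at 37° C, 5% CO2. Viability measured by MTT reduction (1 mg/ml, 3 h), formazan dissolved in DMSO, read at 570/630 nm. Values are optical density as % of solvent control.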

A short description of data set [1]: Determination of the maximum tolerated dose (MTD). The note with it: mouse, in vivo, ip; B6D2F1/Jico mice; single intraperitoneal administration, 2.5 to 160 mg/kg; survival over 14 days.

As usually defined, the MTD is the largest dose that counted as tolerated. For `COc1ccc(-c2cc3c(OC)cc(OC)cc3[nH]c2=O)cc1` [CRL8246, 5,7-Dimethoxy-3-(4-methoxyphenyl)-1,2-dihydro-2-quinolinone], the viability at 10 µM in the data set with U-373MG was 96.6 ± 1.2%; in the data set on MCF7, 98.1 ± 1.4%; in the data set on T-47D, 96 ± 2.6%; in the data set on A549, 113 ± 2.1%. In data set [1], the MTD at 14 day is greater than 160 mg/kg.

Regarding `COc1ccc(-c2cc3c(OC)cc(OC)cc3n(CCC#N)c2=O)cc1` [CRL8247, 3-[5,7-Dimethoxy-3-(4-methoxyphenyl)-2-oxo-1,2-dihydro-1-quinolinyl]propanenitrile], the viability at 10 µM in the data set on U-373MG was found to be 68.7 ± 2.8%; in the data set with MCF7 it was 78.9 ± 1.1%; in the data set with T-47D it was 58.3 ± 1.4%; in the data set with A549, 81.3 ± 1.9%. For the same molecule, the MTD at 14 day in data set [1] was greater than 160 mg/kg.

Turning to `COc1ccc(-c2cc3c(OC)cc(OC)cc3n(CCc3nnn[nH]3)c2=O)cc1` [CRL8256, 1-[2-(1H-1,2,3,4-Tetrazol-5-yl)ethyl]-5,7-dimethoxy-3-(4-methoxyphenyl)-1,2-dihydro-2-quinolinone], the viability at 10 µM in the data set on U-373MG came out at 76.1 ± 2.6%; with MCF7 it was 81.8 ± 1.6%; in the data set on T-47D, 77.5 ± 3.6%; in the data set with A549, 56.5 ± 3.7%. Besides, in data set [1], the MTD at 14 day was greater than 160 mg/kg.

Regarding `CCN(CC)C(=O)CCn1c(=O)c(-c2ccc(OC)cc2)cc2c(OC)cc(OC)cc21` [CRL8283, N,N-Diethyl-3-[5,7-dimethoxy-3-(4-methoxy-phenyl)-2-oxo-1,2-dihydro-1-quinolinyl]propanamide], the viability at 10 µM is 93.4 ± 1.5% with U-373MG, 76.2 ± 0.9% in the data set on MCF7, 81 ± 3.1% in the data set with T-47D and 63.6 ± 4.2% in the data set with A549. In addition, the MTD at 14 day in data set [1] was greater than 160 mg/kg.

Take `CCN(CC)C(=O)Cn1c(=O)c(-c2ccc(OC)cc2)cc2c(OC)cc(OC)cc21` [CRL8315, N,N-Diethyl-2-[5,7-dimethoxy-3-(4-methoxy-phenyl)-2-oxo-1,2-dihydro-1-quinolinyl]acetamide]: the viability at 10 µM in the data set on U-373MG turned out to be 68.9 ± 2.2%; in the data set with MCF7, 96.2 ± 1.7%; in the data set with T-47D it was 101 ± 2.5%; in the data set with A549, 76.1 ± 2.4%. Also, the MTD at 14 day in data set [1] is greater than 160 mg/kg.

On to `COc1ccc(-c2cc3c(OC)cc(OC)cc3n(CCN(C)C)c2=O)cc1` [CRL8316, 1-[2-(Dimethylamino)ethyl]-5,7-dimethoxy-3-(4-methoxyphenyl)-1,2-dihydro-2-quinolinone], for which the viability at 10 µM in the data set on U-373MG amounted to 89.8 ± 2.9%; in the data set on MCF7, 78.9 ± 4%; in the data set with T-47D, 68.8 ± 2.4%; in the data set with A549, 84.2 ± 1.9%. The molecule further displayed an MTD at 14 day in data set [1] greater than 160 mg/kg.
